Reference: US20240376098A1, “METHODS OF TREATMENT USING BCN057, BCN077 AND ANALOGS” (BCN Biosciences L.L.C., priority 2021, published 2024)

Columns and labels:
[1] = system: KRAS mutant G12D invasive pancreatic cancer cell lines; experiment: Proliferation of pancreatic cancer cell lines with analogues of BCN057; format: cell-based
[2] = system: human KRAS G12D mutant colorectal cancer cell line LS174T; experiment: Viability of LS174T colorectal cancer cells; format: cell-based; conditions: viability versus concentration
Excerpt: FIG. 9 is a graph of viability versus concentration of BCN077.

[3] = system: Lgr5+ ISCs; experiment: Lgr5+ intestinal stem cells in 5FU treated Lgr5-Cre-ERT-GFP mice; format: in vivo; conditions: 5FU treated mice, confocal microscopic imaging
Experimental: 5FU is a component of FOLFIRINOX and the active agent metabolized from Capecitabine (Xeloda®). To, examine the effect of BCN057 against chemo induced toxicity in Lgr5+ ISCs, Lgr5-Cre-ERT-GFP mice were pre-treated with 5FU as reported and then subjected to BCN057 treatment.
Stains of GI crypts with green=LGR5+ stem cells. Mice were treated with 5FU and 5FU+BCN057 for 5 days. BCN057 was administered for two extra days after 5FU treatment. Small intestine samples were harvested and stained for LGR5 at 3 days after the last 5FU injection. FIG. 5D is a histogram of the quantitation by % of LGR5+ cells remaining in […] sections at the crypt base showing prevention of 5-FU induced apoptosis in LGR5+ stem cells in GI.

[4] = system: PD-1 expression on human T-lymphocytes; experiment: Western blot of PD-1 on T-lymphocytes co-cultured with Panc-1 cells; format: cell-based; conditions: 15 minutes to 24 hours
Experimental: Cell lines and cell culture: Panc-1 cells were cultured in DMEM medium supplemented with 10% Fetal Bovine Serum and maintained at 37° C.5% CO2. Human Peripheral Blood Pan-T Cells were cultured in serum free T cells expansion media with 10 ng/ml of rhIL-2, T-cell activator and expanded as per the manufacturer instructions. Panc-1 cells and T-Cells were grown and expanded separately in T75 flasks. For co-culture experiments with Panc-1 cell, 2.5 million T-cells per well were plated in the well using a 6 well plate. 2.5 million Panc-1 Cells were plated in the thinsert which was placed into the well of the 6 well plate in order to have the cells physically separated but share media. The cells were incubated for 24 hours at 37° C., 5% CO2. At 24 hours the media was replaced with media containing vehicle, or 10 uM BCN057 and were incubated for the following timepoints: 1 hr, 6 hr, 12 hr, 24 hrs. The Panc-1 cells were removed by gently scraping the cells from the thinsert.
Western Blot: Cells were harvested and lysed in cell lysis buffer on ice for 15 minutes and the lysate was centrifuged at 13,000 rpm at 4° C. for 10 minutes. The supernatant was transferred into a new tube for BCA protein quantification assay (Thermo Fisher Scientific) and the samples were normalized. 3× loading buffer (Cell Signaling) was added the protein sample and boiled for 5 minutes. The samples were used for SDS-PAGE analysis and transferred to nitrocellulose membrane. The membrane was blocked with 5% BSA at room temperature for 1 hour and incubated with primary antibody at 4° C. overnight. The membrane was washed with 1×TBST 5 minutes for 3 times and incubated with horseradish peroxidase-conjugated secondary antibody for 1 hour at room temperature. The protein was visualized by SuperSignal West Pico Stable Peroxide Solution (Thermo Fisher Scientific). The blot was visualized by chemiluminescence using a BioRad Versadoc Imaging System.
BCN057 and Immune Checkpoint blockade: An emerging method of treatment for many forms of cancer, including PDAC, is immune checkpoint inhibitors. […]

[5] = system: pancreatic ductal adenocarcinoma cells (AsPC-1, BxPC-3, MIA PaCa-2 and Panc-1); conditions: range over AsPC-1, BxPC-3, MIA PaCa-2 and Panc-1; limits printed in nM and μM; cited from earlier work

Row | Compound | Proliferation of KRAS mutant G12D invasive pancreatic cancer cell lines [1] | PD1 expression in co-culture of T-cells and Panc1 cells [4] | further results
1 | COc1ccc2cc(-c3nc4c(C)cccn4c3NC(=O)c3cccc(F)c3)c(=O)[nH]c2c1 [BCN077] | inhibition of proliferation | – | Activity on viability of LS174T [2]: potent activity
2 | O=c1[nH]cc(F)c(=O)[nH]1 [5FU, 5-Fluorouracil, reference compound] | – | – | Lgr5+ ISCs in jejunal section [3]: significant loss of Lgr5+ ISCs
3 | CONCCC(=O)Nc1c(-c2cc3ccc(OC)cc3[nH]c2=O)nc2c(C)cccn12 [BCN036] | inhibition of proliferation | inhibit PD1 expression over time | –
4 | Nc1ccn([C@@H]2O[C@H](CO)[C@@H](O)C2(F)F)c(=O)n1 [gemcitabine] | – | – | IC50 [5]: 494 to 23900 nM
5 | CNCCC(=O)Nc1c(-c2cc3ccc(OC)cc3[nH]c2=O)nc2c(C)cccn12.Cl [BCN076] | inhibition of proliferation | inhibit PD1 expression over time | –
